The values below come from patent publication US5698565A, “Use of phenoxy-pyridine derivatives” (Hoffmann-La Roche Inc., priority 1995, dated 1997).

This assay deals with T1, dopamine-D4 receptor (Homo sapiens, UniProt P21917).
T1 construct: expressed in transfected cells; host or cells: CHO (Chinese Hamster Ovary) cells, D4-CHO; crude membranes
T1 sequence (P21917 whole entry): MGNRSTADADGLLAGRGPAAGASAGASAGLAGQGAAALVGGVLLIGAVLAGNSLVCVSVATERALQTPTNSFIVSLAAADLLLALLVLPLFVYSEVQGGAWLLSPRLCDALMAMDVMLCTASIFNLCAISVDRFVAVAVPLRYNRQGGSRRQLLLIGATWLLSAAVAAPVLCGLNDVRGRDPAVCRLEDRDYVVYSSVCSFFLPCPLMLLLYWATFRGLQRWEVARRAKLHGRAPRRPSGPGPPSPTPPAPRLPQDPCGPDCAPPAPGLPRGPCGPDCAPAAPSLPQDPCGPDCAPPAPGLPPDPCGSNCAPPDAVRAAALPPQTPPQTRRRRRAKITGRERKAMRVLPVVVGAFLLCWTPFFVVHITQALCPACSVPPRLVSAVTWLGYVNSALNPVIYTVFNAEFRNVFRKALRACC
Nature of the assay: [3H]-spiperone binding at the D4 receptor, membranes of D4-CHO cells. The conditions noted are these: crude membranes from D4-CHO cells, 200 pM [3H]-spiperone, room temperature, 90 minutes. The method, then: Compounds of formula I were characterized by their binding behavior at the D4 receptor.
CHO cells (Chinese Hamster Ovary) were used in the test. Crude membranes were isolated by ultracentrifugation from D4 -CHO and D2 -CHO cells and were stored at -80° C. After thawing and homogenizing in a buffer solution (50 mM Tris, 1 mM EDTA, 5 mM KCl, 1.5 mM CaCl2, 4 mM MgCl2, pH 7.4) they were incubated at room temperature for 90 minutes with 200 pM [3H]-spiperone and an increasing concentration (1×10^-11 M to 1×10^-4 M) of test compound. A non-specific binding was established by incubating in the presence of 1×10^-5 M (+)-butaclamol. The unbound radioligand was removed by filtration through a GF/C glass filter and the bound radioactivity was determined by scintillation in a Packard TopCount.
The calculation of the value was effected with ligand.
As usually defined, the Ki is a measure of affinity in units of concentration, obtained from inhibition or displacement. Low values mean higher affinity, high ones lower affinity. Regarding `Cc1cccc(OCC(O)CN2CC=C(c3ccccc3)CC2)c1` (centres unmarked) [Compound 1, 1-(4-Phenyl-3,6-dihydro-2H-pyridin-1-yl)-3-m-tolyloxy-5-propan-2-ol], the Ki was under 0.1 µM.

Regarding `Cc1ccccc1OCC(O)CN1CC=C(c2ccccc2)CC1` (centres unmarked) [Compound 2, 1-(4-Phenyl-3,6-dihydro-2H-pyridin-1-yl)-3-o-tolyloxy-propan-2-ol], the Ki was under 0.1 µM.

Consider `OC(COc1cccc(C(F)(F)F)c1)CN1CC=C(c2ccccc2)CC1` (centres unmarked) [Compound 3, 1-(4-Phenyl-3,6-dihydro-2H-pyridin-1-yl)-3-(3-trifluoro-methylphenoxy)-propan-2-ol], for which the Ki was under 0.1 µM.

On to `OCc1ccccc1OCC(O)CN1CC=C(c2ccccc2)CC1` (centres unmarked) [Compound 4, 1-(2-Hydroxymethyl-phenoxy)-3-(4-phenyl-3,6-dihydro-2H-pyridin-1-yl)-propan-2-ol], for which the Ki is under 0.1 µM.

Compound `COc1ccccc1OCC(O)CN1CC=C(c2ccccc2)CC1` (centres unmarked) [Compound 5, 1-(2-Methoxy-phenoxy)-3-(4-phenyl-3,6-dihydro-2H-pyridin-1-yl)-propan-2-ol] had a Ki of under 0.1 µM.

In turn, `CC(=O)Nc1ccccc1OCC(O)CN1CC=C(c2ccccc2)CC1` (centres unmarked) [Compound 6, N-[2-[2-Hydroxy-3-(4-phenyl-3,6-dihydro-2H-pyridin-1-yl)-propoxy]-phenyl]-acetamide] returned a Ki of under 0.1 µM.

As to `CC(=O)c1ccccc1OCC(O)CN1CC=C(c2ccccc2)CC1` (centres unmarked) [Compound 7, 1-[2-[2-Hydroxy-3-(4-phenyl-3,6-dihydro-2H-pyridin-1-yl)-propoxy]-phenyl]-ethanone], the Ki was under 0.1 µM.

`Cc1ccc(OCC(O)CN2CC=C(c3ccccc3)CC2)cc1C` (centres unmarked) [Compound 8, 1-(3,4-Dimethyl-phenoxy)-3-(4-phenyl-3,6-dihydro-2H-pyridin-1-yl)-propan-2-ol]: the Ki was under 0.1 µM.

`CC(=O)Nc1cc(Cl)ccc1OCC(O)CN1CC=C(c2ccccc2)CC1` (centres unmarked) [Compound 9, N-[5-Chloro-2-[2-hydroxy-3-(4-phenyl-3,6-dihydro-2H-pyridin-1-yl)-propoxy]-phenyl]acetamide] displayed a Ki of under 0.1 µM.

In turn, `OC(COc1cccc2ccccc12)CN1CC=C(c2ccccc2)CC1` (centres unmarked) [Compound 10, 1-(Naphthalen-1-yloxy)-3-(4-phenyl-3,6-dihydro-2H-pyridin-1-yl)-propan-2-ol] registered a Ki of under 0.1 µM.

`OC(COc1cccc(C(F)(F)F)c1)CN1CC=C(c2ccc(F)cc2)CC1` (centres unmarked) [Compound 11, 1-[4-(4-Fluoro-phenyl)-3,6-dihydro-2H-pyridin-1-yl)-3-(3-trifluoromethyl-phenoxy)-propan-2-ol] yielded a Ki of under 0.1 µM.

On to `NC(=O)c1ccccc1OCC(O)CN1CC=C(c2ccc(F)cc2)CC1` (centres unmarked) [Compound 12, 2-[3-[4-(4-Fluoro-phenyl)-3,6-dihydro-2H-pyridinol-yl]-2-hydroxy-propoxy]-benzamide], for which the Ki is under 0.1 µM.

As to `NC(=O)Nc1ccccc1OCC(O)CN1CC=C(c2ccc(F)cc2)CC1` (centres unmarked) [Compound 13, [2-[3-[4-(4-Fluoro-phenyl)-3,6-dihydro-2H-pyridin-1-yl]-2-hydroxy-propoxy]-phenyl]-urea], the Ki is under 0.1 µM.

As for `CC(=O)Nc1ccccc1OCC(O)CN1CC=C(c2ccc(Cl)cc2)CC1` (centres unmarked) [Compound 14], the Ki was under 0.1 µM.
